The nature of series [1]: O-phenanthroline Fe(II) chelation test. The series is classed as physicochemical. Conditions: 200 µM compound, FeCl2. The protocol:
The Fe (II)-chelating activity of the tested hydrazones was determined by the O-phenanthroline method. A total of 1 mL sample solutions of 50 mM PB pH 7 contained 0.2 mM O-phenanthroline and 0.05 mM FeCl2 and 0.2 mM hydrazone. In the controls, the tested compounds were omitted. Absorbance was measured at 515 nm via GENESYS 50 UV-VIS spectrophotometer after incubation for 5 min at 37 °C. The data for the sample activity were presented as a percentage of the control measurement. Absorbance spectra of all the samples, the control, and the measurement compositions containing the tested hydrazones and Fe(II) at the concentrations used in the samples were measured.
To explain the results of both systems of Fe(II)-induced oxidative damage, we studied the potency of the tested compounds to chelate-iron (Fe(II)). This was studied by spectrophotometric determination of free iron (Fe(II)) using the ortho-phenanthroline test, as 1,10-phenantroline reacts rapidly with Fe(II) ions in weakly acidic media, generating an orange–red complex (ferroin) with characteristic absorbance spectra (molar absorptivity 1.10.104 (α = 0.20) at ~max 512 nm and a molar ratio 3:1 (R: Fe(II))). The generated complex was stable, and the bound Fe(II) was resistant to oxidation. Lower absorbance of the reaction mixture indicated higher Fe^2+-chelating activity.

Series [2] can be described thus: MTT cell viability assay (cytotoxicity), bEnd3. Conditions: mouse, bEnd3 brain endothelial cells, 1–500 µM. It is filed as cell-based, mouse. As for the experimental part:
Mouse-brain endothelial cell line bEnd3 [36] (CRL-2299) was purchased from the American Type Culture Collection (ATCC, Manassas, VA, USA). The cells were cultured in DMEM (Dulbeco’s modified essential medium) (cat. no. 30-2002, ATCC, Manassas, VA, USA), supplemented with 10% heat-inactivated FBS (cat. no. F7524, Sigma-Aldrich Co. LLC, St. Louis, MO, USA), 1 mM L-glutamine (cat. no. G7513, Sigma-Aldrich Co. LLC, St. Louis, MO, USA) and 1× Antibiotic-Antimycotic solution (penicillin: streptomycin: amphotericin B (100 U/mL: 0.10 mg/mL: 0.25 µg/mL) (cat. no. A5955, Sigma-Aldrich Co. LLC, St. Louis, MO, USA) at 37 °C in a humidified atmosphere containing 5% CO2. The cells were passaged in 75 cm^2 flasks every 3–5 days via trypsinization (StableCell Trypsin solution, cat. no. T2610, Sigma-Aldrich Co. LLC, St. Louis, MO, USA).
Cell viability was assessed via the mitochondrial reductase-dependent reaction of (3-(4,5-dimethylthiazol-2-yl)- 2,5-diphenyl tetrazolium bromide (MTT, cat. no. 475989, Calbiochem, Merck KGaA, Darmstadt, Germany). The SH-SY5Y and bEnd3 cell lines were seeded in 96-well plates at a density of 0.7 × 10^4 (bEnd3) or 2 × 10^4 (SH-SY5Y) cells/well and allowed to adhere for 24 h at 37 °C, 5% CO2. Then, the cells were incubated with the compounds (1–500 μM) for a preset time (24 h). For the solvent, the control cells were treated with DMSO corresponding to the highest concentration of DMSO in the samples (0.5% DMSO) in order to exclude its cytotoxic effect on the cells. For each concentration, a set of at least 6 wells were used. After incubation, the solution from each well was exchanged with fresh culture medium (100 µL/well), containing the MTT reagent (0.5 mg/mL) and incubated for 3 h at 37 °C in a humidified atmosphere and 5% CO2. The obtained formazan crystals were dissolved in 100 µL/well of 5% formic acid in propan-2-ol solution (or DMSO). The absorbance was measured at 570 nm via multiplate reader Tecan Infinite F200 PRO (Tecan Trading AG., Männedorf, Switzerland) or Synergy 2 (BioTek Instruments, Inc., Highland Park, Winooski, VT, USA).
Both the SH-SY5Y and bEnd3 cells were treated with the test compounds in a concentration range from 1 to 500 µM for 24 h.

Series [3] is described as follows: Fe(II)-induced lipid peroxidation assay (LP assay, TBARS). It is filed as biochemical. Conditions: 90 µM, lecithin 1 mg/mL, 0.1 mM FeCl2; lower = stronger antioxidant. As for the experimental part: The lipid peroxidation assay and a modification of the deoxyribose-degradation assay were used. Two types of measurement compositions in phosphate buffer (PB–K2HPO4/KH2PO4, pH 7.4) were prepared for both tests: (i) samples, containing the biologically relevant molecules (lecithin emulsion or deoxyribose), iron, and the tested hydrazones at the concentrations indicated below the figures; and (ii) controls, in which the tested hydrazones were omitted. The data for the sample activity were presented as a percentage of the control measurement.
The thiobarbituric-acid reactive-substance colorimetric test was performed in a model system of Fe(II)-induced lipid peroxidation as an emulsion prepared from egg yolk phospholipids. Each sample contained 1 mg/mL of lecithin. LP was initiated using 0.1 mM FeCl2. After 30 min incubation at 37 °C, 0.5 mL of 2.8% trichloroacetic acid solution and 0.5 mL of 0.5% thiobarbituric acid solution were added, following a second incubation at 100 °C for 20 min. Centrifugation at 3000 rpm for 20 min at 4 °C was performed, and we determined the absorbance value of the supernatant at 532 nm via Shimadzu UV-1601 UV-VIS spectrophotometer.

Series [4] relates to isolated rat-brain synaptosomes. The series can be described thus: 6-OHDA-induced neurotoxicity in isolated rat synaptosomes, GSH level. It is filed as cell-based. Conditions: 10 µM pre-incubation 30 min, then 150 µM 6-OHDA 1 h. As for the experimental part:
This neurotoxicity model was based on the metabolism and auto-oxidation of 6-hydroxy dopamine responsible for the reactive oxygen species and quinones generation, ultimately leading to neurotoxicity and neurodegeneration. The experiment was performed by pre-incubation of the synaptosomes with 10 µM of the compounds for 30 min, followed by the addition of 150 µM 6-hydroxy dopamine for induction of neurotoxicity. After 1 h, they were centrifuged twice for 1 min at 15,000 × g. After the second wash, the precipitates were resolved with buffer B and glucose.

Entries after “also recorded” stand apart in the source; their conditions may differ.

On to `COc1ccc2[nH]c(C(=O)NN=Cc3ccc(O)cc3O)cc2c1` [Compound 5c, N′-(2,4-Dihydroxybenzylidene)-5-methoxy-1H-indole-2-carbohydrazide], for which the “absorbance at 515 nm compared to the controls (Fe(II) chelation)” value in series [1] is reported as “statistically significant changes”. Besides, in series [2], the IC50 at 24 h is above 500 µM. In addition, the “absorbance ratio sample/control (lipid peroxidation)” value (“absorbance ratio sample/control” below) in series [3] was “about 45%”.

Consider `COc1ccc2[nH]c(C(=O)NN=Cc3cccc(O)c3O)cc2c1` [Compound 5a, N′-(2,3-Dihydroxybenzylidene)-5-methoxy-1H-indole-2-carbohydrazide], for which the “absorbance at 515 nm compared to the controls (Fe(II) chelation)” value in series [1] was “identical absorbance values, as compared to the controls”. In addition, the half-maximal inhibitory concentration (IC50) at 24 h in series [2] is 197 µM. Also, the “GSH level preserved, as compared to 6-OHDA” value in series [4] stood at 40%.

For the molecule `COc1ccc2[nH]cc(CCNC(C)=O)c2c1` [Melatonin], the half-inhibitory concentration (IC50) at 24 h in series [2] is above 500 µM. Moreover, the “GSH level preserved, as compared to 6-OHDA” value in series [4] was 90%.

Turning to `COc1cc(C=NNC(=O)CCc2c[nH]c3ccccc23)cc(OC)c1O` [Compound 3f, N′-(4-Hydroxy-3,5-dimethoxybenzylidene)-3-(1H-indol-3-yl)propanehydrazide], in series [1], the “absorbance at 515 nm compared to the controls (Fe(II) chelation)” value is “statistically identical absorbance values at 515 nm, as compared to the controls”. Further, in series [2], the half-inhibitory concentration (IC50) at 24 h was above 500 µM. Further, the “absorbance ratio sample/control” value in series [3] is recorded as “below 65%”.

Turning to `COc1ccc2[nH]c(C(=O)NN=Cc3cc(OC)c(O)c(OC)c3)cc2c1` [Compound 5f, N′-(4-Hydroxy-3,5-dimethoxybenzylidene)-5-methoxy-1H-indole-2-carbohydrazide], in series [1], the “absorbance at 515 nm compared to the controls (Fe(II) chelation)” value was “statistically identical absorbance values at 515 nm, as compared to the controls”. Also, the half-inhibitory concentration (IC50) at 24 h in series [2] is 184 µM. Moreover, in series [3], the “absorbance ratio sample/control” value is given as “about 45%”.

Regarding `COc1cc(C=NNC(=O)CCc2c[nH]c3ccccc23)ccc1O` [Compound 3d, N′-(4-Hydroxy-3-methoxybenzylidene)-3-(1H-indol-3-yl)propanehydrazide], the “absorbance at 515 nm compared to the controls (Fe(II) chelation)” value in series [1] is on record as “statistically identical absorbance values at 515 nm, as compared to the controls”. Further, the half-inhibitory concentration (IC50) at 24 h in series [2] was determined as 367 µM.

In the case of `COc1ccc2[nH]c(C(=O)NN=Cc3ccc(O)c(OC)c3)cc2c1` [Compound 5d, N′-(4-Hydroxy-3-methoxybenzylidene)-5-methoxy-1H-indole-2-carbohydrazide], the “absorbance at 515 nm compared to the controls (Fe(II) chelation)” value in series [1] was “statistically identical absorbance values at 515 nm, as compared to the controls”. In addition, in series [2], the IC50 at 24 h is 353 µM. Also, the “GSH level preserved, as compared to 6-OHDA” value in series [4] was determined as 40%.

Regarding `COc1ccc2[nH]c(C(=O)NN=Cc3ccc(O)c(O)c3)cc2c1` [Compound 5b, N′-(3,4-Dihydroxybenzylidene)-5-methoxy-1H-indole-2-carbohydrazide], the “absorbance at 515 nm compared to the controls (Fe(II) chelation)” value in series [1] is recorded as “statistically identical absorbance values at 515 nm, as compared to the controls”. For the same molecule, in series [2], the IC50 at 24 h was determined as 158 µM.

Consider “N′-(4-Hydroxy-2-methoxybenzylidene)-3-(1H-indol-3-yl)propanehydrazide [Compound 3e]”, for which, in series [1], the “absorbance at 515 nm compared to the controls (Fe(II) chelation)” value was “statistically significant changes; also recorded: much higher absorbance values than the controls”.

Consider `COc1ccc(C=NNC(=O)c2cc3cc(OC)ccc3[nH]2)c(O)c1` [Compound 5e, N′-(2-Hydroxy-4-methoxybenzylidene)-5-methoxy-1H-indole-2-carbohydrazide], for which the “absorbance at 515 nm compared to the controls (Fe(II) chelation)” value in series [1] is given as “statistically significant changes; also recorded: much higher absorbance values than the controls”. Further, the concentration for half-maximal inhibition (IC50) at 24 h in series [2] was 12.1 µM. Also, in series [3], the “absorbance ratio sample/control” value is on record as “about 45%”.

By IC50 is commonly meant the point on the concentration scale where inhibition reaches its midpoint.

(Values after article PMC10135567, “New Indole-3-Propionic Acid and 5-Methoxy-Indole Carboxylic Acid Derived Hydrazone Hybrids as Multifunctional Neuroprotectors” (Antioxidants, 2023).)
